Assays:
Assay type in all cases: in vivo
[1] = tested on: Russian thistle (Salsola iberica); experiment: Test B pre-/postemergence plant response; settings: Preemergence
In short: (§1)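 Visual scoring from 0 (no effect) to 100 (complete control) against untreated controls was done 13 to 15 days after greenhouse treatment. Chemicals were formulated in a surfactant-containing non-phytotoxic solvent and applied to soil preemergence or to 1- to 4-leaf (2-18 cm) plants postemergence.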

[2] = tested on: common (oilseed) sunflower (Helianthus annuus); experiment: Test B pre-/postemergence plant response; settings: Preemergence
In short: as §1

[3] = tested on: downy bromegrass (Bromus tectorum); experiment: Test B pre-/postemergence plant response; settings: for Bromegrass, Downy plant response rating: 8 g ai/ha
In short: as §1

[4] = tested on: eastern black (E.B.) nightshade (Solanum ptycanthum); experiment: Test B pre-/postemergence plant response; settings: Preemergence
In short: as §1

[5] = tested on: giant foxtail (Setaria faberii); experiment: Test B pre-/postemergence plant response
In short: as §1

[6] = tested on: goosegrass (Eleusine indica); experiment: Test B pre-/postemergence plant response
In short: as §1

[7] = tested on: morningglory (Ipomoea coccinea); experiment: Test B pre-/postemergence plant response
In short: as §1

[8] = tested on: soybean (Glycine max); experiment: Test B pre-/postemergence plant response
In short: as §1

[9] = tested on: surinam grass (Brachiaria decumbens); experiment: Test B pre-/postemergence plant response
In short: as §1

[10] = tested on: wheat (Triticum aestivum); experiment: Test B pre-/postemergence plant response
In short: as §1

[11] = tested on: barnyardgrass (Echinochloa crus-galli); experiment: Test B flooded paddy test plant response; settings: Flood (flooded paddy test), scale 0 to 100, 0 no effect, 100 complete control
In short: (§2)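 Paddy-water application to 2-leaf plants in pots held under 3 cm of flooding; response is a 0–100 visual control rating against controls after 13 to 15 days, and a dash marks a missing result.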

[12] = tested on: ducksalad (Heteranthera limosa); experiment: Test B flooded paddy test plant response; settings: Flood (flooded paddy test), scale 0 to 100, 0 no effect, 100 complete control
In short: as §2

[13] = tested on: rice (Oryza sativa); experiment: Test B flooded paddy test plant response; settings: Flood (flooded paddy test), scale 0 to 100, 0 no effect, 100 complete control
In short: as §2

[14] = tested on: umbrella sedge (Cyperus difformis); experiment: Test B flooded paddy test plant response; settings: Flood (flooded paddy test), scale 0 to 100, 0 no effect, 100 complete control
In short: as §2

[15] = 31 g ai/ha, scale 0 to 100 (0 no effect, 100 complete control)
[16] = Postemergence, 16 g ai/ha, scale 0 to 100
[17] = Postemergence, 31 g ai/ha, scale 0 to 100
[18] = Postemergence, 62 g ai/ha, scale 0 to 100, 0 no effect, 100 complete control
[19] = Preemergence, 31 g ai/ha, 0 to 100 scale, 0 no effect, 100 complete control
[20] = Preemergence, 62 g ai/ha, scale 0 to 100
[21] = 8 g ai/ha, postemergence, 0-100 scale
[22] = Preemergence, 8 g ai/ha, scale 0 to 100
[23] = Preemergence, 16 g ai/ha, scale 0 to 100
[24] = Preemergence, 31 g ai/ha, scale 0 to 100 (0 no effect, 100 complete control)
[25] = Preemergence, 62 g ai/ha, 0 to 100 scale, 0 no effect, 100 complete control

Cc1cc(-c2ccc(Cl)cc2)nn1-c1c(OC(=O)c2cccs2)cnn(C)c1=O [Compound 52]
Plant response rating, Russian Thistle [1, 15]: 0
Plant response rating, Russian Thistle ([1]; 62 g ai/ha, scale 0 to 100): 0
Russian Thistle plant response rating ([1]; 8 g ai/ha, scale 0 to 100): 0
Russian Thistle plant response rating ([1]; 16 g ai/ha, scale 0 to 100): 0
Plant response rating, Sunflower [2, 15]: 0
Plant response rating, Sunflower ([2]; 62 g ai/ha, scale 0 to 100): 0
Sunflower plant response rating ([2]; 8 g ai/ha, scale 0 to 100): 0
Sunflower plant response rating ([2]; 16 g ai/ha, scale 0 to 100): 0
Bromegrass, Downy plant response rating ([3]; postemergence, 0-100 scale): 30
Plant response rating, Bromegrass, Downy [3, 16]: 30
Plant response rating, Bromegrass, Downy [3, 17]: 40
Plant response rating, Bromegrass, Downy [3, 18]: 70
Plant response rating, Bromegrass, Downy ([3]; Preemergence, 16 g ai/ha, scale 0 to 100 (0 no effect, 100 complete control)): 35
Plant response rating, Bromegrass, Downy [3, 19]: 35
Plant response rating, Bromegrass, Downy [3, 20]: 80
Bromegrass, Downy plant response rating ([3]; Preemergence, scale 0 to 100): 0
Plant response rating, Nightshade, E. B. [4, 15]: 0
Plant response rating, Nightshade, E. B. ([4]; 62 g ai/ha, scale 0 to 100): 0
Nightshade, E. B. plant response rating ([4]; 8 g ai/ha, scale 0 to 100): 0
Nightshade, E. B. plant response rating ([4]; 16 g ai/ha, scale 0 to 100): 0
Foxtail, Giant plant response rating [5, 21]: 85
Plant response rating, Foxtail, Giant [5, 16]: 98
Plant response rating, Foxtail, Giant [5, 17]: 100
Plant response rating, Foxtail, Giant [5, 18]: 100
Plant response rating, Foxtail, Giant [5, 19]: 0
Plant response rating, Foxtail, Giant [5, 20]: 98
Foxtail, Giant plant response rating [5, 22]: 0
Foxtail, Giant plant response rating [5, 23]: 0
Goosegrass plant response rating [6, 21]: 60
Plant response rating, Goosegrass [6, 16]: 65
Plant response rating, Goosegrass [6, 17]: 80
Plant response rating, Goosegrass [6, 18]: 85
Plant response rating, Goosegrass [6, 19]: 0
Plant response rating, Goosegrass [6, 20]: 0
Goosegrass plant response rating [6, 22]: 0
Goosegrass plant response rating [6, 23]: 0
Morningglory plant response rating [7, 21]: 0
Plant response rating, Morningglory [7, 16]: 0
Plant response rating, Morningglory [7, 17]: 0
Plant response rating, Morningglory [7, 18]: 0
Plant response rating, Morningglory [7, 24]: 90
Plant response rating, Morningglory [7, 20]: 100
Morningglory plant response rating [7, 22]: 0
Morningglory plant response rating [7, 23]: 0
Soybean plant response rating [8, 21]: 0
Plant response rating, Soybean [8, 16]: 0
Plant response rating, Soybean [8, 17]: 0
Plant response rating, Soybean [8, 18]: 0
Plant response rating, Soybean [8, 20]: 0
Soybean plant response rating [8, 22]: 0
Soybean plant response rating [8, 23]: 0
Surinam Grass plant response rating [9, 21]: 70
Plant response rating, Surinam Grass [9, 16]: 85
Plant response rating, Surinam Grass [9, 17]: 100
Plant response rating, Surinam Grass [9, 18]: 100
Plant response rating, Surinam Grass [9, 24]: 25
Plant response rating, Surinam Grass [9, 25]: 100
Surinam Grass plant response rating [9, 22]: 0
Surinam Grass plant response rating [9, 23]: 0
Wheat plant response rating [10, 21]: 0
Plant response rating, Wheat [10, 16]: 50
Plant response rating, Wheat [10, 17]: 70
Plant response rating, Wheat [10, 18]: 85
Plant response rating, Wheat [10, 24]: 20
Plant response rating, Wheat [10, 25]: 50
Wheat plant response rating [10, 22]: 0
Wheat plant response rating [10, 23]: 0
Plant response rating, Barnyardgrass ([11]; 62 g ai/ha): 15
Plant response rating, Barnyardgrass ([11]; 250 g ai/ha): 75
Plant response rating, Ducksalad ([12]; 62 g ai/ha): 0
Plant response rating, Ducksalad ([12]; 250 g ai/ha): 0
Plant response rating, Rice ([13]; 62 g ai/ha): 10
Plant response rating, Rice ([13]; 250 g ai/ha): 60
Plant response rating, Sedge, Umbrella ([14]; 62 g ai/ha): 0
Plant response rating, Sedge, Umbrella ([14]; 250 g ai/ha): 0

Reference: patent US20100267561A1, “HERBICIDAL PYRIDAZINONE DERIVATIVES” (priority 2007, published 2010)
